The results in this text go back to US20080207708A1, “Oxazole and Thiazole Compounds and Their Use in the Treatment of Pge2 Mediated Disorders” (GLAXO GROUP LIMITED, priority 2005, published 2008).

This assay deals with T1, EP1 receptors (Homo sapiens, UniProt P34995).
T1 sequence (P34995 1-402): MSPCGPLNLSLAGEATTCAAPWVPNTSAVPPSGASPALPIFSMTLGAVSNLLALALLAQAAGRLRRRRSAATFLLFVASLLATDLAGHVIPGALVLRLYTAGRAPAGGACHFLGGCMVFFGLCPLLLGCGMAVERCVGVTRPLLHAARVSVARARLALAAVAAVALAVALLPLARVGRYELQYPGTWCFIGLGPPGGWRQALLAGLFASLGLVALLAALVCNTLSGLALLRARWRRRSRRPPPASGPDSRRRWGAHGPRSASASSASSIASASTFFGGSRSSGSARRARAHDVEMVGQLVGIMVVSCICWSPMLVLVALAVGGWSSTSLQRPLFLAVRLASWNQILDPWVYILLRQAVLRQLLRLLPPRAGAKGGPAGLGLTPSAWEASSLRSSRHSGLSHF
The experiment in a line: Binding assay for the human prostanoid EP1 receptor (competition with [3H]-PGE2). Particulars: [3H]-PGE2 competition; averages of a number of experiments; read-out: pIC50 value, binding assay for the human prostanoid EP1 receptor (converted). Further details: expressed in transfected cells; host or cells: CHO-K1 cells, membrane fraction. The procedure:
Competition assay using [^3H]-PGE2.
Compound potencies are determined using a radioligand binding assay. In this assay compound potencies are determined from their ability to compete with tritiated prostaglandin E2 ([^3H]-PGE2) for binding to the human EP1 receptor.
This assay utilises Chinese hamster ovary-K1 (CHO-K1) cells into which a stable vector containing the EP1 cDNA has previously been transfected. Cells are cultured in suitable flasks containing culture medium such as DMEM:F-12 supplemented with 10% v/v foetal calf serum, 2 mM L-glutamine, 0.25 mg/ml geneticin, 10 μg/ml puromycin and 10 μM indomethacin.
Cells are detached from the culture flasks by incubation in calcium and magnesium free phosphate buffered saline containing 1 mM disodium ethylenediaminetetraacetic acid (Na2EDTA) and 10 μM indomethacin for 5 min. The cells are isolated by centrifugation at 250×g for 5mins and suspended in an ice cold buffer such as 50 mM Tris, 1 mM Na2EDTA, 140 mM NaCl, 10 μM indomethacin (pH 7.4). The cells are homogenised using a Polytron tissue disrupter (2×10 s burst at full setting), centrifuged at 48,000×g for 20mins and the pellet containing the membrane fraction is washed (optional) three times by suspension and centrifugation at 48,000×g for 20mins. The final membrane pellet is suspended in an assay buffer such as 10 mM 2-[N-morpholino]ethanesulphonic acid, 1 mM Na2EDTA, 10 mM MgCl2 (pH 6). Aliquots are frozen at […] until required.
For the binding assay the cell membranes, competing compounds and [^3H]-PGE2 (3 nM final assay concentration) are incubated in a final volume of 100 μl for 30 min at 30° C. All reagents are prepared in assay buffer. Reactions are terminated by rapid vacuum filtration over GF/B filters using a Brandell cell harvester. The filters are washed with ice cold assay buffer, dried and the radioactivity retained on the filters is measured by liquid scintillation counting in Packard TopCount scintillation counter.
The data are analysed using non linear curve fitting techniques to determine the concentration of compound producing 50% inhibition of specific binding (IC50).
Turning to `NC(=O)c1nc(Cc2cc(Cl)ccc2OCc2ccc(F)cc2F)cs1` [Example 1, 4-[(5-chloro-2-{[(2,4-difluorophenyl)methyl]oxy}phenyl)methyl]-1,3-thiazole-2-carboxamide], the IC50 is not above 1 µM.
Take `NC(=O)c1nc(Cc2cc(Cl)ccc2OCc2ccccc2F)cs1` [Example 2, 4-[(5-chloro-2-{[(2-fluorophenyl)methyl]oxy}phenyl)methyl]-1,3-thiazole-2-carboxamide]: the IC50 is not above 1 µM.
Take `NC(=O)c1nc(Cc2cc(Cl)ccc2OCc2ccccc2Cl)cs1` [Example 3, 4-[(5-chloro-2-{[(2-chlorophenyl)methyl]oxy}phenyl)methyl]-1,3-thiazole-2-carboxamide]: the IC50 was not above 1 µM.
As for `NC(=O)c1nc(Cc2cc(Cl)ccc2OCc2c(F)cc(F)cc2F)cs1` [Example 4, 4-[(5-chloro-2-{[(2,4,6-trifluorophenyl)methyl]oxy}phenyl)methyl]-1,3-thiazole-2-carboxamide], the figure is not above 1 µM; as for `NC(=O)c1nc(Cc2cc(Cl)ccc2OCc2ccc(Cl)cc2)cs1` [Example 5, 4-[(5-chloro-2-{[(4-chlorophenyl)methyl]oxy}phenyl)methyl]-1,3-thiazole-2-carboxamide], not above 1 µM; as for `NC(=O)c1nc(Cc2cc(Cl)ccc2OCc2ccc(F)cc2Cl)cs1` [Example 6, 4-[(5-chloro-2-{[(2-chloro-4-fluorophenyl)methyl]oxy}phenyl)methyl]-1,3-thiazole-2-carboxamide], not above 1 µM.
With `NC(=O)c1nc(Cc2cc(Cl)ccc2OCc2c(F)ccc(F)c2F)cs1` [Example 7, 4-[(5-chloro-2-{[(2,3,6-trifluorophenyl)methyl]-oxy}phenyl)methyl]-1,3-thiazole-2-carboxamide] the figure was more than 1 µM; with `NC(=O)c1nc(Cc2cc(Cl)ccc2OCc2cc(F)c(F)cc2F)cs1` [Example 8, 4-[(5-chloro-2-{[(2,4,5-trifluorophenyl)methyl]oxy}phenyl)methyl]-1,3-thiazole-2-carboxamide], not above 1 µM; with `O=C(O)c1csc(Cc2cc(Cl)ccc2OCc2ccccc2)n1` [Example 9, 2-({5-chloro-2-[(phenylmethyl)oxy]phenyl}methyl)-1,3-thiazole-4-carboxylicacid], not above 0.0316 µM.
Consider `O=C(O)c1csc(Cc2cc(Cl)ccc2OCc2ccccc2F)n1` [Example 10, 2-[(5-chloro-2-{[(2-fluorophenyl)methyl]oxy}phenyl)methyl]-1,3-thiazole-4-carboxylicacid], for which the IC50 was not above 0.0316 µM.
With `O=C(O)c1csc(Cc2cc(Cl)ccc2OCc2ccc(Cl)cc2)n1` [Example 11, 2-[(5-chloro-2-{[(4-chlorophenyl)methyl]oxy}phenyl)methyl]-1,3-thiazole-4-carboxylicacid] the figure was not above 0.0316 µM; with `O=C(O)c1csc(Cc2cc(Cl)ccc2OCc2ccc(F)cc2)n1` [Example 12, 2-[(5-chloro-2-{[(4-fluorophenyl)methyl]oxy}phenyl)methyl]-1,3-thiazole-4-carboxylicacid], not above 0.0316 µM.
For the compound `O=C(O)c1csc(Cc2cc(Cl)ccc2OCc2c(F)cc(F)cc2F)n1` [Example 13, 2-[(5-chloro-2-{[(2,4,6-trifluorophenyl)methyl]oxy}phenyl)methyl]-1,3-thiazole-4-carboxylicacid], the IC50 is not above 0.0316 µM.
With `O=C(O)c1csc(Cc2cc(Cl)ccc2OCc2ccc(F)cc2Cl)n1` [Example 14, 2-[(5-chloro-2-{[(2-chloro-4-fluorophenyl)methyl]oxy}phenyl)methyl]-1,3-thiazole-4-carboxylicacid] the figure was not above 0.0316 µM; with `O=C(O)c1csc(Cc2cc(Cl)ccc2OCc2ccccc2Cl)n1` [Example 15, 2-[(5-chloro-2-{[(2-chlorophenyl)methyl]oxy}phenyl)methyl]-1,3-thiazole-4-carboxylicacid], not above 0.0316 µM; with `O=C(O)c1csc(Cc2cc(Cl)ccc2OCc2ccc(F)cc2F)n1` [Example 16, 2-[(5-chloro-2-{[(2,4-difluorophenyl)methyl]oxy}phenyl)methyl]-1,3-thiazole-4-carboxylicacid], not above 0.0316 µM.
With `O=C(O)c1csc(Cc2cc(Cl)ccc2OCc2ccc(Cl)cc2Cl)n1` [Example 17, 2-[(5-chloro-2-{[(2,4-dichlorophenyl)methyl]oxy}phenyl)methyl]-1,3-thiazole-4-carboxylicacid], the IC50 is not above 0.0316 µM.
With `O=C(O)c1csc(Cc2cc(Cl)ccc2OCc2cc(F)c(F)cc2F)n1` [Example 18, Sodium 2-[(5-chloro-2-{[(2,4,5-trifluorophenyl)methyl]oxy}phenyl)methyl]-1,3-thiazole-4-carboxylate] the figure was not above 0.0316 µM.
`O=C(O)c1csc(Cc2cc(Cl)ccc2OCc2c(F)ccc(F)c2F)n1` [Example 19, Sodium 2-[(5-chloro-2-{[(2,3,6-trifluorophenyl)methyl]oxy}phenyl)methyl]-1,3-thiazole-4-carboxylate]: the IC50 is not above 1 µM.
As for `O=C(O)c1csc(Cc2cc(Cl)ccc2OCc2ccc(F)c(F)c2F)n1` [Example 20, Sodium 2-[(5-chloro-2-{[(2,3,4-trifluorophenyl)methyl]oxy}phenyl)methyl]-1,3-thiazole-4-carboxylate], the figure is not above 1 µM; as for `O=C(O)c1csc(Cc2cc(Cl)ccc2OCc2cc(F)c(F)c(F)c2)n1` [Example 21, Sodium 2-[(5-chloro-2-{[(3,4,5-trifluorophenyl)methyl]oxy}phenyl)methyl]-1,3-thiazole-4-carboxylate], not above 1 µM.
With `O=C(O)c1csc(Cc2cc(Cl)ccc2OCc2ccc(Br)cc2F)n1` [Example 22, Sodium 2-[(2-{[(4-bromo-2-fluorophenyl)methyl]oxy}-5-chlorophenyl)methyl]-1,3-thiazole-4-carboxylate] the figure was not above 0.0316 µM; with `CC(C)COc1ccc(Cl)cc1Cc1nc(C(=O)O)cs1` [Example 23, Sodium 2-({5-chloro-2-[(2-methylpropyl)oxy}phenyl}methyl)-1,3-thiazole-4-carboxylate], not above 0.0316 µM.
As for `O=C(O)c1csc(Cc2cc(C(F)(F)F)ccc2OCc2ccccc2)n1` [Example 24, Sodium 2-{[2-[(phenylmethyl)oxy]-5-(trifluoromethyl)phenyl]methyl}-1,3-thiazole-4-carboxylate], the figure is not above 0.0316 µM.
Turning to `O=C(O)c1csc(Cc2cc(C(F)(F)F)ccc2OCc2ccc(F)cc2)n1` [Example 25, Sodium 2-{[2-{[(4-fluorophenyl)methyl]oxy}-5-(trifluoromethyl)phenyl]methyl}-1,3-thiazole-4-carboxylate], the IC50 was not above 1 µM.
Consider `O=C(O)c1csc(Cc2cc(C(F)(F)F)ccc2OCc2ccc(F)cc2F)n1` [Example 26, Sodium 2-{[2-{[(2,4-difluorophenyl)methyl]oxy}-5-(trifluoromethyl)phenyl]methyl}-1,3-thiazole-4-carboxylate], for which the IC50 was not above 0.0316 µM.
With `O=C(O)c1csc(Cc2cc(Cl)ccc2OCC2CCCC2)n1` [Example 27, Sodium 2-({5-chloro-2-[(cyclopentylmethyl)oxy]phenyl}methyl)-1,3-thiazole-4-carboxylate] the figure was not above 0.0316 µM; with `O=C(O)c1csc(Cc2cc(C(F)(F)F)ccc2OCc2ccccc2Br)n1` [Example 28, Sodium 2-{[2-{[(2-bromophenyl)methyl]oxy}-5-(trifluoromethyl)phenyl]methyl}-1,3-thiazole-4-carboxylate], not above 1 µM.
